Key:
nLucOGG1 in HeLa cells = target: T1, nLucOGG1 in HeLa cells (Homo sapiens, UniProt O15527); test: Cellular Thermal Shift Assay to measure compound affinity for nLucOGG1 in HeLa cells (CETSA DTm); format: cell-based; conditions: 10 μM compound, 37° C. 60 min, Tm vs DMSO control
T1 construct: thermal shift read by NanoGlo luminescence
Description: Biological Example 2: Cellular Thermal Shift Assay to Measure Compound Affinity for ^nLucOGG1 in HeLa Cells (CETSA DTm)
Cell Culture and Transfection of Hela Cells with ^nLucOGG1: For all tests, Hela cells were maintained in growth medium, Dulbecco's Minimum Eagle Medium (Multicell: Cat #319-005-CL) supplemented with 10% heat-inactivated fetal bovine serum (Gibco: Cat #12484-028) at 37° C. and 5% CO2 in a humidified tissue culture incubator. Transient transfections were performed using the Lonza 4-D Nucleofector X unit according to the manufacturer's protocol (Lonza Cat #V4XC-1024). Briefly, for each transfection, 1.2×10^6 cells were centrifuged at 1000 RPM for 5 minutes at room temperature before being diluted in 100 μL SE solution containing 18% v/v supplement and 1.5 μg pNF1-N-empty or pNF1-N-OGG1a vector. The total volume was transferred to a 100 μL nucleofection cuvette prior to transfer to the apparatus where HeLa cell nucleofection protocol CN-114 was executed. Following nucleofection, 500 μL complete media was added to the cells in the cuvette before transferring to a 6-well dish containing 1.5 mL of complete media. Cells were left to incubate for 48 hours before performing all cellular thermal shift experiments.
Cellular Thermal Shift Assays for Target Engagement (CETSA): Forty-eight hours following nucleofection, cells were washed once with DPBS−/−(Multicell: Cat #311-425-CL) and lifted with 0.25% Trypsin-EDTA (Multicell: Cat #325-043-CL) prior to dilution in growth medium and centrifugation at 1000 RPM for 5 minutes at room temperature. The resulting cell pellet was then resuspended in growth medium, cells were counted and the volume adjusted to 500 k cells/mL (2×).
For delta Tm determination, OGG1 inhibitor compounds were dissolved in DMSO to a final working concentration of 20 mM. Working solutions were then diluted in complete media to 20 μM or 0.1% DMSO for the vehicle control (2×). 2×OGG1 inhibitor compound solutions or 0.1% DMSO control were then pre-dispensed into MicroAmp Optical 96-well PCR reaction plates (Applied Biosystems: Cat #4346906) at 50 μL/well. Next, 50 μL or 25 k cells/well from the 2× cell suspension was added to the pre-loaded PCR plates. All plates were prepared as duplicates, covered with adhesive plate sealers (Perkin Elmer: Cat #6050185) and left to incubate at 37° C. for 60 minutes. During incubation, sufficient NanoGlo luciferase assay reagents (Promega: Cat #N1120) were left to equilibrate to room temperature in the dark. Immediately before heating the plates, the NanoGlo substrate was mixed with the NanoGlo buffer at a 1:50 ratio. The thermal cycler (Veriti 96-Well Thermal Cycler, Thermo Fisher Scientific) was allowed to reach the designated temperature prior to placement of the PCR plate into the heating block. For Tm determination experiments, duplicate plates containing a fixed concentration of test compound (10 μM final) as well as vehicle control were prepared to perform a 12-point temperature gradient spanning 37-70° C. for 3 minutes. Therefore, two thermal cycler protocols were set up covering two 6-step temperature gradients ranging from 37-52° C. and 52-70° C. Plates were then allowed to cool at room temperature for 5 minutes after the heat treatment followed by transfer of 75 μL of the reaction into a 96-well white polystyrene microplate (Corning: Cat #CLS3903) and addition of 75 μL of the prepared NanoGlo mixture. Microplates were then left to shake in the dark for 5 minutes before total luminescence was measured on a SpectraMax IX3 plate reader. The luminescence value obtained at each temperature was normalized to the luminescence obtained at 37° C. and the ratio obtained was plotted against the temperature. A Boltzman Sigmoidal non-linear regression was applied to the resulting data to determine Tm values and the difference between the Tm value for a given OGG1 inhibitor relative to the DMSO vehicle control was the delta Tm.

hOGG1 = hOGG1 (Homo sapiens, UniProt O15527); test: Biochemical fluorescence assay to measure enzymatic activity of hOGG1 (OGG1/APEX IC50); set-up: Protein His-hOGG1 (12-323) was prepared; His (N); host or cells: E. coli; conditions: 1 nM OGG1+2 nM APEX+6 nM dsDNA (8-oxo-dG substrate); pH 7.5; RT 40 min; read-out: OGG1/APEX IC50
Sequence of hOGG1 (O15527 12-323): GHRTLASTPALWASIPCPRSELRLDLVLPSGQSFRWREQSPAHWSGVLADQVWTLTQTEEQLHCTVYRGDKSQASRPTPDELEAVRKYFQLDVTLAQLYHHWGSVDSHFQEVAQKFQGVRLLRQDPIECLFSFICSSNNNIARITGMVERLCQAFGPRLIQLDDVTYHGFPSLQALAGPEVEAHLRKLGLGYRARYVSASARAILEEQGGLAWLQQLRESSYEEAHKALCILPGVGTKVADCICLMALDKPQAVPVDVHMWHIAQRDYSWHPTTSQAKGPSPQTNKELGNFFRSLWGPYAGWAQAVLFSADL
Summary of the method: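 Coupled glycosylase/AP-endonuclease read-out: 8-oxo-dG-containing dsDNA (6 nM) cleaved by 1 nM His-hOGG1 (12-323) plus 2 nM APEX1 over 40 min at room temperature, after 20 min enzyme–compound preincubation; buffer 20 mM Tris pH 7.5, 100 mM KCl, 0.1% BSA, 0.01% Tween. IC50 comes from sigmoidal 3-parameter fitting of % inhibition derived from TAMRA signal.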

T1 sequence (O15527 whole entry): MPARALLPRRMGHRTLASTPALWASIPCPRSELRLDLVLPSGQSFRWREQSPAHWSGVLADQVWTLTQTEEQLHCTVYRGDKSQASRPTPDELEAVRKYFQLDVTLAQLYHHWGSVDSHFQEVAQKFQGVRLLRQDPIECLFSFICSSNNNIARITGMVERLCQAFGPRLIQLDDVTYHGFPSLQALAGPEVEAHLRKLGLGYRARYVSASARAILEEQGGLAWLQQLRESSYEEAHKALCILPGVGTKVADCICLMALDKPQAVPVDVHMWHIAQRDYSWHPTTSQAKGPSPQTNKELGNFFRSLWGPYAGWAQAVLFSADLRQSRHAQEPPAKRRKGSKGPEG

| ΔTm at 10 µM (nLucOGG1 in HeLa cells) [°C] | IC50 (hOGG1) [nM] | Compound |
| --- | --- | --- |
| 8 to 10 | < 100 | COc1cc(NC(=O)[C@H]2CC[C@@H](N3Cc4c(C)cc(-c5nnco5)cc4NC3=O)CC2)ccc1C [Example 92, (1s,4s)-N-(3-methoxy-4-methylphenyl)-4-(5-methyl-7-(1,3,4-oxadiazol-2-yl)-2-oxo-1,2-dihydroquinazolin-3(4H)-yl)cyclohexanecarboxamide] |
| > 10 | < 100 | CNCCNc1cc(C)c2c(c1)C(=O)N([C@H]1CC[C@@H](C(=O)Nc3ccc(C)c(OC)c3)CC1)C2 [Example 193, (1s,4s)-N-(3-methoxy-4-methylphenyl)-4-(4-methyl-6-(2-(methylamino)ethylamino)-1-oxoisoindolin-2-yl)cyclohexanecarboxamide] |
| 8 to 10 | < 100 | COc1ccc(NC(=O)[C@H]2CC[C@@H](N3Cc4c(C)cc(NCCN(C)C)cc4C3=O)CC2)cc1C#N [Example 259, (1s,4s)-N-(3-Cyano-4-methoxyphenyl)-4-(6-(2-(dimethylamino)ethylamino)-4-methyl-1-oxoisoindolin-2-yl)cyclohexanecarboxamide] |
| 8 to 10 | < 100 | COc1cc(NC(=O)[C@H]2CC[C@@H](N3Cc4c(C)ccc(OCC5CNC5)c4NC3=O)CC2)ccc1C [Example 44, (1s,4s)-4-(8-(Azetidin-3-ylmethoxy)-5-methyl-2-oxo-1,2-dihydroquinazolin-3(4H)-yl)-N-(3-methoxy-4-methylphenyl)cyclohexanecarboxamide] |
| 8 to 10 | < 100 | COc1cc(NC(=O)[C@H]2CC[C@@H](N3Cc4c(C)ccc(C#N)c4NC3=O)CC2)ccc1C [Example 59, (1s,4s)-4-(8-cyano-5-methyl-2-oxo-1,2-dihydroquinazolin-3(4H)-yl)-N-(3-methoxy-4-methylphenyl)cyclohexanecarboxamide] |
| 8 to 10 | < 100 | COc1cc(NC(=O)[C@H]2CC[C@@H](N3Cc4c(C)ccc(CN)c4NC3=O)CC2)ccc1C [Example 58, (1s,4s)-4-(8-(aminomethyl)-5-methyl-2-oxo-1,2-dihydroquinazolin-3(4H)-yl)-N-(3-methoxy-4-methylphenyl)cyclohexanecarboxamide] |
| > 10 | < 100 | COc1cc(NC(=O)[C@H]2CC[C@@H](N3Cc4c(C)cc(CN)cc4NC3=O)CC2)ccc1C [Example 28, (1s,4s)-4-(7-(Aminomethyl)-5-methyl-2-oxo-1,2-dihydroquinazolin-3(4H)-yl)-N-(3-methoxy-4-methylphenyl)cyclohexanecarboxamide] |
| 6 to 8 | 100 to 1000 | COc1cc(NC(=O)[C@H]2CC[C@@H](N3Cc4c(C)cc(OCCN5CC(F)(F)C5)cc4C3=O)CC2)ccc1C [Example 255, (1s,4s)-4-(6-(2-(3,3-Difluoroazetidin-1-yl)ethoxy)-4-methyl-1-oxoisoindolin-2-yl)-N-(3-methoxy-4-methylphenyl)cyclohexanecarboxamide] |
| 8 to 10 | < 100 | COc1ccc(NC(=O)[C@H]2CC[C@@H](N3Cc4c(C)cc(NCCN(C)C)cc4NC3=O)CC2)cc1C [Example 97, (1s,4s)-4-(7-(2-(dimethylamino)ethylamino)-5-methyl-2-oxo-1,2-dihydroquinazolin-3(4H)-yl)-N-(4-methoxy-3-methylphenyl)cyclohexanecarboxamide] |
| 6 to 8 | 1000 to 10000 | COc1ccc(NC(=O)[C@H]2CC[C@@H](N3Cc4c(C)ccnc4NC3=O)CC2)cc1 [Example 15, (1s,4s)-N-(4-methoxyphenyl)-4-(5-methyl-2-oxo-1,2-dihydropyrido[2,3-d]pyrimidin-3(4H)-yl)cyclohexanecarboxamide] |
| 6 to 8 | 100 to 1000 | COc1ccc(NC(=O)[C@H]2CC[C@@H](N3Cc4c(C)ccc(OC)c4NC3=O)CC2)cc1Cl [Example 3, (1s,4s)-N-(3-Chloro-4-methoxyphenyl)-4-(8-methoxy-5-methyl-2-oxo-1,2-dihydroquinazolin-3(4H)-yl)cyclohexanecarboxamide] |
| > 10 | < 100 | COc1ccc(NC(=O)[C@H]2CC[C@@H](N3Cc4c(C)cc(NCCN(C)C)cc4C3=O)CC2)cc1C [Example 256, (1s,4s)-4-(6-(2-(Dimethylamino)ethylamino)-4-methyl-1-oxoisoindolin-2-yl)-N-(4-methoxy-3-methylphenyl)cyclohexanecarboxamide] |
| > 10 | < 100 | COc1cc(NC(=O)[C@H]2CC[C@@H](N3Cc4c(C)ccc(CNC(C)=O)c4NC3=O)CC2)ccc1C [Example 17, (1s,4s)-4-(8-(Acetamidomethyl)-5-methyl-2-oxo-1,2-dihydroquinazolin-3(4H)-yl)-N-(3-methoxy-4-methylphenyl)cyclohexanecarboxamide] |
| 6 to 8 | 100 to 1000 | COc1cc(NC(=O)[C@H]2CC[C@@H](N3Cc4c(C)ccc(P(C)(C)=O)c4NC3=O)CC2)ccc1C [Example 5, (1s,4s)-4-(8-(Dimethylphosphoryl)-5-methyl-2-oxo-1,2-dihydroquinazolin-3(4H)-yl)-N-(3-methoxy-4-methylphenyl)cyclohexanecarboxamide] |
| 8 to 10 | < 100 | COc1ccc(NC(=O)[C@]2(C)CC[C@H](N3Cc4c(C)ccc(OC)c4NC3=O)CC2)cc1Cl (single isomer, unassigned) [Example 7, (1s,4s)-N-(3-chloro-4-methoxyphenyl)-4-(8-methoxy-5-methyl-2-oxo-1,2-dihydroquinazolin-3(4H)-yl)-1-methylcyclohexanecarboxamide] |
| 8 to 10 | 100 to 1000 | COc1cc(NC(=O)[C@]2(C)CC[C@H](N3Cc4c(C)cccc4C3=O)CC2)ccc1C [Example 277, (1s,4s)-N-(3-methoxy-4-methylphenyl)-1-methyl-4-(4-methyl-1-oxoisoindolin-2-yl)cyclohexane-1-carboxamide] |
| 6 to 8 | 100 to 1000 | COc1ccc(NC(=O)[C@H]2CC[C@@H](N3Cc4c(C)cccc4C3=O)CC2)cc1C [Example 227, (1s,4s)-N-(4-Methoxy-3-methylphenyl)-4-(4-methyl-1-oxoisoindolin-2-yl)cyclohexanecarboxamide] |
| 6 to 8 | 100 to 1000 | COc1ccc(NC(=O)[C@H]2CC[C@@H](N3Cc4c(C)ccnc4NC3=O)CC2)cc1Cl [Example 14, (1s,4s)-N-(3-Chloro-4-methoxyphenyl)-4-(5-methyl-2-oxo-1,2-dihydropyrido[2,3-d]pyrimidin-3(4H)-yl)cyclohexanecarboxamide] |
